Test results: patent US20230346809A1, “USE OF CANNABIDIVARIN IN THE TREATMENT OF SEIZURES ASSOCIATED WITH RARE EPILEPSY SYNDROMES RELATED TO GENETIC ABNORMALITIES” (GW Research Limited, priority 2020, published 2023)
“Also recorded” adds a separate entry of the source.

Tests used:
[1] = system: patients with Dravet and Lennox-Gastaut syndrome; conditions: purified pharmaceutical formulation of CBD; three trials; cited from earlier work
[2] = system: methyl-6, 7-dimethoxy-4-ethyl-beta-carboline-3-carboxylate (DMCM) model; conditions: postnatal day 10 animals; cited from earlier work
[3] = system: pilocarpine-induced seizures; conditions: CBDV alone; Hill et al. 2012; cited from earlier work
[4] = system: MeCP2 KO mouse model of Rett Syndrome; conditions: WO 2017/178807; cited from earlier work
[5] = system: mouse model of Rett syndrome; conditions: cited from earlier work
[6] = system: seizures associated with Rett syndrome; assay: Open label, phase I trial of CBDV in patients diagnosed with Rett syndrome (caregiver seizure diary); assay type: in vivo, human; set-up: Mean seizure frequency reduction: concentration or dose not given beside the values; conditions: for Mean seizure frequency reduction: versus baseline
Description: Example 1 below describes the use of a botanically derived purified CBDV in an open label, phase I trial to investigate the clinical efficacy and safety of purified pharmaceutical cannabidivarin formulation (CBDV) in the treatment of patients diagnosed with Rett syndrome.
Subjects were required to be on one or more AEDs at stable doses for a minimum of 4 weeks prior to baseline. Subjects had to have been diagnosed with intractable epilepsy: failed adequate trial of two, or more, standard anticonvulsants, and four or more quantifiable seizures less than 8 weeks prior to screening, and two or more quantifiable seizures in prospective baseline phase.
Patients were administered botanically derived purified CBDV in a 50 mg/mL sesame oil-based solution which was titrated to an initial dose of 2.5 milligrams per kilogram per day (mg/kg/day). Doses were then increased to a goal of 10 mg/kg/day.
There were five patients in this study, and each received CBDV for various durations of time. Modifications were made to concomitant AEDs as per clinical indication.
Seizure frequency, intensity, and duration were recorded by caregivers in a diary during a baseline period of at least 28 days. Changes in seizure frequency relative to baseline were calculated after at least 2 weeks and at defined timepoints of treatment.
Patients may be defined as responders if they had more than 50% reduction in seizure frequency compared to baseline. The percent change of seizure frequency for the end of the treatment period was calculated as follows: […]

[7] = system: maximal electroshock model; conditions: postnatal day 10 animals; cited from earlier work
[8] = Patient 1, total over 14 months of CBDV, baseline 0
[9] = Patient 2, total over 11 months of CBDV, baseline 0
[10] = Patient 3, total over 12 months of CBDV, baseline 0
[11] = Patient 4, total over 12.5 months of CBDV, baseline 0
[12] = Patient 5, total over 11 months of CBDV, baseline 0

Compound: C=C(C)[C@@H]1CCC(C)=C[C@H]1c1c(O)cc(CCCCC)cc1O [CBD, Cannabidiol]
- Efficacy in randomized control trials [1]: showed efficacy

Compound: C=C(C)[C@@H]1CCC(C)=C[C@H]1c1c(O)cc(CCC)cc1O [CBDV, cannabidivarin]
- Seizure suppression [2]: did not suppress seizures
- Effect on pilocarpine-induced seizures [3]: did not have any effect
- Bodyweight and survival [4]: reduce the decrease in bodyweight and survival
- General condition and symptoms of mobility and breathing [4]: improved general condition and symptoms of mobility and breathing
- Behavioural alterations ([5]; reference 2): rescue the behavioural alterations
- Memory deficits ([5]; reference 3): rescued memory deficits
- Neurological and motor defects ([5]; reference 3): delayed the appearance of neurological and motor defects
- Mean seizure frequency reduction ([6]; Patient 1, 14 months of CBDV): 52.5%
- Total seizure frequency ([6]; Patient 1, 14 months of CBDV, baseline 32.0/month): 15.2/month
- Focal seizures with impairment, Non-motor: seizure count [6, 8]: 2 /14 months
- Generalised seizures, Motor other: seizure count [6, 8]: 8 /14 months
- Generalised seizures, Motor tonic-clonic: seizure count [6, 8]: 0 /14 months
- Non-motor: seizure count [6, 8]: 0 /14 months
- Other: seizure count [6, 8]: 1 /14 months
- Unknown onset, Motor other: seizure count [6, 8]: 3 /14 months
- Unknown onset, Motor tonic-clonic: seizure count [6, 8]: 7 /14 months
- Focal seizures with impairment, Motor: seizure count ([6]; Patient 1, total over 14 months of CBDV, baseline 32): 192 /14 months
- Mean seizure frequency reduction ([6]; Patient 2, 11 months of CBDV): 79.4%
- Total seizure frequency ([6]; Patient 2, 11 months of CBDV, baseline 35.0/month): 7.2/month
- Focal seizures with impairment, Motor: seizure count [6, 9]: 0 /11 months
- Generalised seizures, Motor other: seizure count [6, 9]: 0 /11 months
- Generalised seizures, Motor tonic-clonic: seizure count [6, 9]: 0 /11 months
- Non-motor: seizure count [6, 9]: 0 /11 months
- Unknown onset, Motor other: seizure count [6, 9]: 0 /11 months
- Unknown onset, Motor tonic-clonic: seizure count [6, 9]: 0 /11 months
- Other: seizure count ([6]; Patient 2, total over 11 months of CBDV, baseline 3): 18 /11 months
- Focal seizures with impairment, Non-motor: seizure count ([6]; Patient 2, total over 11 months of CBDV, baseline 32): 61 /11 months
- Mean seizure frequency reduction ([6]; Patient 3, 12 months of CBDV): 90.0%
- Total seizure frequency ([6]; Patient 3, 12 months of CBDV, baseline 6.0/month): 0.6/month
- Focal seizures with impairment, Non-motor: seizure count [6, 10]: 0 /12 months
- Generalised seizures, Motor other: seizure count [6, 10]: 0 /12 months
- Non-motor: seizure count [6, 10]: 0 /12 months
- Other: seizure count [6, 10]: 0 /12 months
- Unknown onset, Motor other: seizure count [6, 10]: 0 /12 months
- Unknown onset, Motor tonic-clonic: seizure count [6, 10]: 0 /12 months
- Focal seizures with impairment, Motor: seizure count ([6]; Patient 3, total over 12 months of CBDV, baseline 1): 3 /12 months
- Generalised seizures, Motor tonic-clonic: seizure count ([6]; Patient 3, total over 12 months of CBDV, baseline 5): 4 /12 months
- Mean seizure frequency reduction ([6]; Patient 4, 12.5 months of CBDV): 5.7%
- Total seizure frequency ([6]; Patient 4, 12.5 months of CBDV, baseline 7.0/month): 6.6/month
- Focal seizures with impairment, Non-motor: seizure count [6, 11]: 0 /12.5 months
- Generalised seizures, Motor tonic-clonic: seizure count [6, 11]: 0 /12.5 months
- Non-motor: seizure count [6, 11]: 0 /12.5 months
- Other: seizure count [6, 11]: 6 /12.5 months
- Unknown onset, Motor other: seizure count [6, 11]: 0 /12.5 months
- Unknown onset, Motor tonic-clonic: seizure count [6, 11]: 0 /12.5 months
- Focal seizures with impairment, Motor: seizure count ([6]; Patient 4, total over 12.5 months of CBDV, baseline 3): 73 /12.5 months
- Generalised seizures, Motor other: seizure count ([6]; Patient 4, total over 12.5 months of CBDV, baseline 4): 4 /12.5 months
- Mean seizure frequency reduction ([6]; Patient 5, 11 months of CBDV): 98.1%
- Total seizure frequency ([6]; Patient 5, 11 months of CBDV, baseline 371.0/month): 7.2/month
- Focal seizures with impairment, Motor: seizure count [6, 12]: 0 /11 months
- Focal seizures with impairment, Non-motor: seizure count [6, 12]: 0 /11 months
- Non-motor: seizure count [6, 12]: 6 /11 months
- Other: seizure count [6, 12]: 0 /11 months
- Unknown onset, Motor tonic-clonic: seizure count [6, 12]: 0 /11 months
- Generalised seizures, Motor other: seizure count ([6]; Patient 5, total over 11 months of CBDV, baseline 18): 18 /11 months
- Generalised seizures, Motor tonic-clonic: seizure count ([6]; Patient 5, total over 11 months of CBDV, baseline 25): 38 /11 months
- Unknown onset, Motor other: seizure count ([6]; Patient 5, total over 11 months of CBDV, baseline 328): 17 /11 months
- Decrease of seizure frequency rates, maximum ([6]; across listed seizure types): up to 98%
- Reduction in seizures over the period of treatment, range over patients ([6]; all five patients, 11-14 months of CBDV): 5.7-98.1%
- Patients with more than 50% reduction in seizure frequency compared to baseline (responders) ([6]; five patients): four of the five patients
- Patients with more than 75% reduction in seizure frequency compared to baseline ([6]; five patients): three
- Effect on number of seizures associated with Rett syndrome ([6]; five patients, open label): significantly reduce the number of seizures
- Effect on frequency of seizure types ([6]; focal motor/non-motor with impairment, generalised motor/non-motor, unknown onset motor, non-motor and other types): effective in reducing the frequency of all seizure types; also recorded: significant reduction in specific seizure types
- Patients with focal seizures with impairment who experienced a reduction in their seizures ([6]; four patients (patient 1-4) suffered from focal seizures with impairment): three (patients 1-3) of these patients experienced a reduction
- Patients with generalised seizures who experienced a reduction in these seizures ([6]; three patients (patients 3-5) suffered from generalised seizures): all three experienced a reduction
- Seizure suppression [7]: did not suppress seizures
